For assay [1], the system named is MRSA (ATCC 33591). Put plainly: Intracellular and extracellular ATP concentration. It counts as cell-based, S. aureus. The procedure:
The intracellular and extracellular ATP levels refer to the concentration of ATP inside and outside the cell. Under normal physiological conditions, ATP is mainly produced inside the cell and released outside the cell when needed. This dynamic change is very important for maintaining normal biological homeostasis.
Determine the intracellular ATP concentration using the ATP assay kit:
Secondly, the bacterial suspension was treated with different concentrations of compound i, and a blank control group was set up. Next, the samples were incubated at 37° C. and the cells were lysed by ultrasound to extract ATP. After that, the supernatant was collected by high-speed centrifugation and ATP detection was performed, which involved adding the detection solution and compound to a 96-well plate and using a reader to measure the light intensity. Finally, data analysis and statistics were performed to evaluate the effects of the compound by comparing the ATP levels of different treatment groups.

Assay [2] concerns MRSA (ATCC 33591). Briefly: Bacterial extracellular conductivity. It counts as cell-based, S. aureus. The note with it: 1×MIC and 2×MIC, vs blank control. The source says:
Changes in conductivity can reflect the permeability and integrity of the cell membrane. When the cell membrane is damaged or the permeability increases, the flow of ions inside and outside the cell will increase, resulting in an increase in conductivity. In the fields of biology and cell biology, conductivity measurements are often used to assess changes in cell membrane integrity.
MRSA and E. coli cells in the logarithmic growth phase were first resuspended after high-speed centrifugation and repeated PBS buffer washing and adjusted to the appropriate optical density. Next, different concentrations of compound i (1×MIC and 2×MIC) were added to the cell suspension, and a blank control group was set. All samples were incubated at 37° C. and sampled at set time points (0, 1, 2, 4, 6, and 8 hours). […] This series of operations helps to reveal the specific mechanism of action of compound i on bacterial growth and cell structure.

The subject of assay [3] is MRSA (ATCC 33591). Briefly: Biofilm formation, crystal violet staining. Format: cell-based, S. aureus. The procedure: Quantification of biofilm using crystal violet staining:
MRSA and E. coli cells were first adjusted to the logarithmic growth phase and diluted to […]. […] A blank control group without compound addition was set up. After incubation, the suspension was discarded and washed three times with 10 mM PBS buffer, and the biofilm was fixed with methanol for 15 minutes. After removing the methanol, 200 μL of 0.1% crystal violet was added to each well for staining for 30 minutes, and then the crystal violet was discarded and washed again with PBS three times. After the well plate was dried, 200 μL of 95% ethanol was added to each well to dissolve the fixed dye. […] This process allows for quantitative analysis of the ability of different concentrations of compound i to form biofilms.

The test system of assay [4] is MRSA (ATCC 33591). Briefly: Cell membrane integrity, propidium iodide staining. Format: cell-based, S. aureus. How it is done:
The steps for dead cell staining using propidium iodide are as follows:
At the beginning of the experiment, samples were taken from MRSA and E. coli in the logarithmic growth phase, centrifuged at 8000 rpm for 5 minutes and washed twice with 0.85% NaCl solution to remove the culture medium and other possible interfering substances. Afterwards, the bacteria were resuspended in 0.85% NaCl solution and the concentration was adjusted to approximately 1×10^8 CFU/mL.
[…] After incubation, in order to mark and distinguish dead cells, 15 μM propidium iodide solution was added to each sample and incubated in the dark for 15 minutes. PI is a fluorescent dye that binds to DNA and can only penetrate into dead cells with damaged cell membranes.
Finally, the samples were observed using a fluorescence microscope or a confocal laser scanning microscope. By setting the appropriate fluorescence channel (excitation wavelength 535 nm, emission wavelength 617 nm), the red fluorescence emitted by dead cells can be detected. In this way, the effect of compound i on the lethality of bacterial cells can be intuitively evaluated and recorded, providing an experimental basis for further drug research.

The test system of assay [5] is Staphylococcus aureus (MRSA, ATCC 33591). Briefly: Mouse MRSA systemic infection model, H&E tissue sections. Format: in vivo. Conditions: MRSA-infected mice. The procedure: Establishment of a mouse model of MRSA systemic infection
(2) Pretreatment: All mice received cyclophosphamide treatment, with the first intraperitoneal injection of 150 mg/kg cyclophosphamide 4 days before infection and the second intraperitoneal injection of 100 mg/kg cyclophosphamide 1 day before infection.
(4) Infection process: Mice were anesthetized with isoflurane and infected by intraperitoneal injection of Staphylococcus aureus (MRSA, ATCC 33591) at a concentration of 10^7 CFU/mL. […]
(2) Processing: • (a) Time point: At the first hour after infection, mice in the experimental group received intraperitoneal injection of 0.5 mL of compounds of different concentrations, while mice in the control group received the same volume of solvent. • (b) Treatment time: […]
Part II: The samples were fixed with 10% formalin buffer, then embedded in paraffin and sectioned. The sections were stained with hematoxylin and eosin (H&E) and then examined under an optical microscope.

In assay [6] the test system is MRSA (ATCC 33591). Briefly: Cell membrane potential, DiBAC4 (3) probe. The note with it: 1×MIC to 8×MIC, vs blank control.
Assay [7] concerns E. coli (ATCC 25922). Briefly: Cell membrane potential, DiBAC4 (3) probe. Conditions: 1×MIC to 8×MIC, vs blank control.
Setting [8] is: 5 mg/kg compound i, intraperitoneal.

As for `C=C[C@]1(C)C[C@@H](OC(=O)CSc2nc3cc[n+](Cc4ccc(C)cc4)cc3[nH]2)[C@]2(C)[C@H](C)CC[C@]3(CCC(=O)[C@H]32)[C@@H](C)[C@@H]1O` [Compound i, 5-(4-methylbenzyl)-2-((2-(((3aR,4R,5R,7S,8S,9R,9aS,12R)-8-hydroxy-4,7,9,12-tetramethyl-3-oxo-7-vinyldecahydro-4,9a-propancyclopenta[8]cyclo-5-yl)oxy)-2-oxoethyl)thio)-3H-imidazo[4,5-C]pyridine-5-ium], the “extracellular fluorescence intensity (ATP) increased by” value in assay [1] (1×MIC) is reported as 3.27 times; in assay [1] (2×MIC), 2.28 times. Moreover, the “intracellular fluorescence intensity (ATP) decreased by” value in assay [1] (1×MIC) came to 51.92%; in assay [1] (2×MIC) it was 74.76%. In assay [2], the extracellular conductivity entry is “increased”. The “inhibition rate of biofilm formation” value in assay [3] (1×MIC) came out at 51.33%; in assay [3] (8×MIC), 86.68%. Moreover, the figures for the “cell membrane integrity, propidium iodide red fluorescence” value in assay [4] (1×MIC) and in assay [4] (2×MIC) were “obvious red fluorescence was observed” and “red fluorescence was significantly enhanced”, respectively. Also, the “kidney H&E histology” value in assay [5] (setting [8]) is reported as “returned to a normal state”. Also, the “lung H&E histology” value in assay [5] (setting [8]) is “no obvious pathological changes”. In addition, the “spleen H&E histology” value in assay [5] (5 mg/kg, after 7 days of treatment) was “immune response was weakened”. Moreover, the “membrane potential, DiBAC4 (3) fluorescence intensity” value is recorded as “significant dose-dependent increase” in assay [6] and “dose-dependent increase in fluorescence intensity” in assay [7].

For the origin of these results see patent US12275734B1, “Pleuromutilin onium salt derivative containing a 3H-imidazo[4,5-c]pyridine side chain, and a preparation method and application thereof” (SHAANXI UNIVERSITY OF SCIENCE AND TECHNOLOGY, priority 2024, dated 2025).
